In patent US20100081642A1, “CB-1 RECEPTOR MODULATOR PHARMACEUTICAL FORMULATIONS” (priority 2008, published 2010):
In brackets after ≈: the same amount, converted by molar mass. Where two headings read alike, the source gives them in different places.

Test: Solubility of Compound I in various vehicles (high throughput screening, HPLC assay of solution phase)
Format: physicochemical
Protocol: Solubility of Compound 1 was determined using a high throughput screening method.
The above solubilities were determined by adding Compound I to the test system and stirred. Following an equilibrium time, the material in the solution phase is assayed by HPLC to determine solubility.

Question: What does the source list for CC(C)(F)[C@H](c1cc(F)cc(C#N)c1)C1CN([C@@H](c2ccc(Cl)cc2)c2cccc(-c3n[nH]c(=O)o3)c2)C1 [Compound I, 3-[(1S)-1-(1-{(S)-(4-chlorophenyl)[3-(5-oxo-4,5-dihydro-1,3,4-oxadiazol-2-yl)phenyl]methyl}azetidin-3-yl)-2-fluoro-2-methylpropyl]-5-fluorobenzonitrile]?
Answer: solubility (aqueous with cosolvent or surfactant or cyclodextrin, thermodynamic from solid, vehicle CREMOPHOR EL (aqueous solution), free base, read-out: Solubility in vehicle at ambient temperature): < 40 µg/mL; solubility (aqueous with cosolvent or surfactant or cyclodextrin, thermodynamic from solid, vehicle Methyl Cellulose (aqueous solution), free base, read-out: Solubility in vehicle at ambient temperature): < 40 µg/mL; solubility (aqueous with cosolvent or surfactant or cyclodextrin, thermodynamic from solid, vehicle Methyl Cellulose with SDS (aqueous solution), free base, read-out: Solubility in vehicle at ambient temperature): < 40 µg/mL; solubility (aqueous with cosolvent or surfactant or cyclodextrin, thermodynamic from solid, vehicle POLYSORBATE 80 (aqueous solution), free base, read-out: Solubility in vehicle at ambient temperature): < 40 µg/mL; solubility (aqueous with cosolvent or surfactant or cyclodextrin, thermodynamic from solid, vehicle Sodium lauryl sulfate (aqueous solution), free base, read-out: Solubility in vehicle at ambient temperature): < 40 µg/mL; solubility (aqueous with cosolvent or surfactant or cyclodextrin, thermodynamic from solid, vehicle Vitamin E TPGS (aqueous solution), free base, read-out: Solubility in vehicle at ambient temperature): < 40 µg/mL; solubility (fassgf or other biorelevant, thermodynamic from solid, vehicle Simulated gastric fluids (fasted and fed), free base, read-out: Solubility in vehicle at ambient temperature): < 40 µg/mL; Solubility in vehicle at ambient temperature (vehicle 0.01N HCl/34 mMNaCl, free base): 0.007 mg/g; Solubility in vehicle at ambient temperature (vehicle IMWITOR 742, free base): 318 mg/g; Solubility in vehicle at ambient temperature (vehicle IMWITOR:TWEEN (1:1), free base): >240 mg/g; Solubility in vehicle at ambient temperature (vehicle MIGLYOL 812, free base): 86 mg/g; Solubility in vehicle at ambient temperature (vehicle Water, free base): 0.001 mg/g; solubility (water, statement in description, read-out: solubility in water): 1 µg/mL (≈ 1.87 µM)
